Article PMC4447944 (The Journal of Biological Chemistry, 2015)

Columns and labels:
hEGFR(L861Q) = molecular target: T1, hEGFR(L861Q) (Homo sapiens, UniProt P00533, L861Q); assay: KINOMEscan; type: binding
T1 construct: purchased DiscoverX

hMET(Y1235D) = molecular target: T2, hMET(Y1235D) (Homo sapiens, UniProt P08581, Y1235D); assay: KINOMEscan; type: binding
T2 construct: purchased DiscoverX

hAURKA = molecular target: T3, hAURKA (Homo sapiens, UniProt O14965); assay: KINOMEscan; type: binding
T3 construct: purchased DiscoverX

hACVR2B = molecular target: T4, hACVR2B (Homo sapiens, UniProt Q13705); assay: KINOMEscan; type: binding
T4 construct: purchased DiscoverX (KINOMEscan platform)

hDLK = molecular target: T5, hDLK (Homo sapiens, UniProt Q12852); assay: KINOMEscan; type: binding
T5 construct: purchased DiscoverX (KINOMEscan platform)

hEGFR(E746-A750del) = molecular target: T6, hEGFR(E746-A750del) (Homo sapiens, UniProt P00533, DEL746-750); assay: KINOMEscan; type: binding
T6 construct: purchased DiscoverX

hADRβ1 = hADRβ1 (Homo sapiens, UniProt P08588); assay: β-arrestin Antagonist (Eurofins-CEREP); details: read-out: % Effect, Inhibition
hJAK1(JH1Dom.-catalytic) = molecular target: T7, hJAK1(JH1Dom.-catalytic) (Homo sapiens, UniProt P23458); assay: KINOMEscan; type: binding
T7 construct: hJAK1(JH1Dom.-catalytic); purchased DiscoverX (KINOMEscan panel)

hANKK1 = molecular target: T8, hANKK1 (Homo sapiens, UniProt Q8NFD2); assay: KINOMEscan; type: binding
T8 construct: purchased DiscoverX

hCSF1R-autoinhib = molecular target: T9, hCSF1R-autoinhib (Homo sapiens, UniProt P07333); assay: KINOMEscan; type: binding; details: read-out: Inhibition at the 20 μM dose
T9 construct: purchased DiscoverX (KINOMEscan platform)

hICK = molecular target: T10, hICK (Homo sapiens, UniProt Q9UPZ9); assay: KINOMEscan; type: binding
T10 construct: purchased DiscoverX (KINOMEscan panel)

hEPHA4 = molecular target: T11, hEPHA4 (Homo sapiens, UniProt P54764); assay: KINOMEscan; type: binding
T11 construct: purchased DiscoverX

hLIMK2 = molecular target: T12, hLIMK2 (Homo sapiens, UniProt P53671); assay: KINOMEscan; type: binding
T12 construct: purchased DiscoverX (KINOMEscan platform)

hINSRR = molecular target: T13, hINSRR (Homo sapiens, UniProt P14616); assay: KINOMEscan; type: binding
T13 construct: purchased DiscoverX (KINOMEscan panel)

hYES = molecular target: T14, hYES (Homo sapiens, UniProt P07947); assay: KINOMEscan; type: binding
T14 construct: purchased DiscoverX

hLXRα = molecular target: T15, hLXRα (Homo sapiens, UniProt Q13133); assay: Nuclear hormone receptor assay (Eurofins-CEREP); details: read-out: Relative IC50
T15 construct: Eurofins-CEREP

hCSK = molecular target: T16, hCSK (Homo sapiens, UniProt P41240); assay: KINOMEscan; type: binding
T16 construct: purchased DiscoverX (KINOMEscan platform)

hULK1 = molecular target: T17, hULK1 (Homo sapiens, UniProt O75385); assay: KINOMEscan; type: binding
T17 construct: purchased DiscoverX

hMARK4 = molecular target: T18, hMARK4 (Homo sapiens, UniProt Q96L34); assay: KINOMEscan; type: binding
T18 construct: purchased DiscoverX

hROS1 = molecular target: T19, hROS1 (Homo sapiens, UniProt P08922); assay: KINOMEscan; type: binding
T19 construct: purchased DiscoverX (KINOMEscan platform)

hLATS1 = molecular target: T20, hLATS1 (Homo sapiens, UniProt O95835); assay: KINOMEscan; type: binding
T20 construct: purchased DiscoverX (KINOMEscan platform)

hADRβ2 = hADRβ2 (Homo sapiens, UniProt P07550); assay: β-arrestin Antagonist (Eurofins-CEREP); details: read-out: % Effect, Inhibition
hABL1-p = molecular target: T21, hABL1-p (Homo sapiens, UniProt P00519); assay: KINOMEscan; type: binding
T21 construct: purchased DiscoverX (KINOMEscan platform)

hM3 = hM3 (Homo sapiens, UniProt P20309); assay: β-arrestin Antagonist (Eurofins-CEREP); details: read-out: % Effect, Inhibition
hFLT3(K663Q) = molecular target: T22, hFLT3(K663Q) (Homo sapiens, UniProt P36888, K663Q); assay: KINOMEscan; type: binding
T22 construct: purchased DiscoverX

hYANK3 = molecular target: T23, hYANK3 (Homo sapiens, UniProt Q86UX6); assay: KINOMEscan; type: binding
T23 construct: purchased DiscoverX

hKIT(D816V) = molecular target: T24, hKIT(D816V) (Homo sapiens, UniProt P10721, D816V); assay: KINOMEscan; type: binding
T24 construct: purchased DiscoverX (KINOMEscan panel)

hDDR2 = molecular target: T25, hDDR2 (Homo sapiens, UniProt Q16832); assay: KINOMEscan; type: binding
T25 construct: purchased DiscoverX (KINOMEscan platform)

hTXK = molecular target: T26, hTXK (Homo sapiens, UniProt P42681); assay: KINOMEscan; type: binding
T26 construct: purchased DiscoverX

h5HT2B = h5HT2B (Homo sapiens, UniProt P41595); assay: Calcium Mobilization Potentiation (Eurofins-CEREP); details: @ 10 μM
hERβ = molecular target: T27, hERβ (Homo sapiens, UniProt Q92731); assay: Nuclear hormone receptor assay (Eurofins-CEREP); details: read-out: Relative IC50
T27 construct: Eurofins-CEREP

hABL1(Q252H) = molecular target: T28, hABL1(Q252H) (Homo sapiens, UniProt P00519, Q252H); assay: KINOMEscan; type: binding
T28 construct: purchased DiscoverX (KINOMEscan platform)

hMET = molecular target: T29, hMET (Homo sapiens, UniProt P08581); assay: KINOMEscan; type: binding
T29 construct: purchased DiscoverX

hAXL = molecular target: T30, hAXL (Homo sapiens, UniProt P30530); assay: KINOMEscan; type: binding
T30 construct: purchased DiscoverX

hEPHB4 = molecular target: T31, hEPHB4 (Homo sapiens, UniProt P54760); assay: KINOMEscan; type: binding
T31 construct: purchased DiscoverX

[1] = molecular target: T32, hRPS6KA4(Kin.Dom.1-N-term) (Homo sapiens, UniProt O75676); assay: KINOMEscan; type: binding
T32 construct: hRPS6KA4(Kin.Dom.1-N-term); purchased DiscoverX (KINOMEscan platform)

hEPHA5 = molecular target: T33, hEPHA5 (Homo sapiens, UniProt P54756); assay: KINOMEscan; type: binding
T33 construct: purchased DiscoverX

hSgK110 = molecular target: T34, hSgK110 (Homo sapiens, UniProt P0C264); assay: KINOMEscan; type: binding
T34 construct: purchased DiscoverX (KINOMEscan platform)

hTRα1 = molecular target: T35, hTRα1 (Homo sapiens, UniProt P10827); assay: Nuclear hormone receptor assay (Eurofins-CEREP); details: read-out: Relative IC50
T35 construct: Eurofins-CEREP
T35 sequence (P10827 1-410 isoform P10827-2): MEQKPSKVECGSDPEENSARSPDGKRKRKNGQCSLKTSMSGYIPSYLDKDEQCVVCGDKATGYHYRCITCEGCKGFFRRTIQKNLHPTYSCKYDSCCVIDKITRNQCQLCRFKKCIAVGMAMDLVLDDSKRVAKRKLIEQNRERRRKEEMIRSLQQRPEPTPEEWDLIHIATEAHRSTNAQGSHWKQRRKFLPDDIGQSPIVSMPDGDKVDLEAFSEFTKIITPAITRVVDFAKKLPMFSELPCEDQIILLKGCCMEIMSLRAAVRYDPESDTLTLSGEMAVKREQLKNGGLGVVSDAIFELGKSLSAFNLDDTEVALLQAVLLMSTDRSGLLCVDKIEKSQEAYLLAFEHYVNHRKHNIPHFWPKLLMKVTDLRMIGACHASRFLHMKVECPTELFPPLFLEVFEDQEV

T17 sequence (O75385 whole entry): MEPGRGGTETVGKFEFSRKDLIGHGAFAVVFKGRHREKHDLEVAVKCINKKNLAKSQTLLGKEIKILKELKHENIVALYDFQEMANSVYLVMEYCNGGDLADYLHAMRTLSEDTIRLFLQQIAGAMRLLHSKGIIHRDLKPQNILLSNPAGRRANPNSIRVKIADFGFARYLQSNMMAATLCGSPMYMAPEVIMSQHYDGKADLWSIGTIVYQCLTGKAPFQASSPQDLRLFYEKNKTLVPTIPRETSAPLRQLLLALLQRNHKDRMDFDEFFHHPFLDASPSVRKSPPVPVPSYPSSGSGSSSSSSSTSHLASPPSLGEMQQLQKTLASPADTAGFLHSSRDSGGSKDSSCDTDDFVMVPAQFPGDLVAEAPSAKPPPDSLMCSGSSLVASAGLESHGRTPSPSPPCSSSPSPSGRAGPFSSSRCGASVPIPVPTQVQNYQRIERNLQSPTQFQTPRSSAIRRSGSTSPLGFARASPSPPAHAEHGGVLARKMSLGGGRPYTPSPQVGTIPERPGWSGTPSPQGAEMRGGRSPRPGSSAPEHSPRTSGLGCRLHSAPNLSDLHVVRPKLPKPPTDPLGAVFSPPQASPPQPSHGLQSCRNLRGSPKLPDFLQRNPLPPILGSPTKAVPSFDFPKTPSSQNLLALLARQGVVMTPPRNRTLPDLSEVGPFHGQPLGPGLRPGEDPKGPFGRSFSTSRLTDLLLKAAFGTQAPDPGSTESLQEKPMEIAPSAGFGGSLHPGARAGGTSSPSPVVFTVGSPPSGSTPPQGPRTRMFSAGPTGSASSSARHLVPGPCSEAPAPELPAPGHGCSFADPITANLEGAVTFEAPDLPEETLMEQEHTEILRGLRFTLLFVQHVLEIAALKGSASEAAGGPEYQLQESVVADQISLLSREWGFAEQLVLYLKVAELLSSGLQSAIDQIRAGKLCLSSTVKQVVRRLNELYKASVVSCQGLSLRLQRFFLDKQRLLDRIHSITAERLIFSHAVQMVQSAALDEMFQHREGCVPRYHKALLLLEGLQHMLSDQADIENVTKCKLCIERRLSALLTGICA
T1 sequence (P00533 25-1210 L861Q): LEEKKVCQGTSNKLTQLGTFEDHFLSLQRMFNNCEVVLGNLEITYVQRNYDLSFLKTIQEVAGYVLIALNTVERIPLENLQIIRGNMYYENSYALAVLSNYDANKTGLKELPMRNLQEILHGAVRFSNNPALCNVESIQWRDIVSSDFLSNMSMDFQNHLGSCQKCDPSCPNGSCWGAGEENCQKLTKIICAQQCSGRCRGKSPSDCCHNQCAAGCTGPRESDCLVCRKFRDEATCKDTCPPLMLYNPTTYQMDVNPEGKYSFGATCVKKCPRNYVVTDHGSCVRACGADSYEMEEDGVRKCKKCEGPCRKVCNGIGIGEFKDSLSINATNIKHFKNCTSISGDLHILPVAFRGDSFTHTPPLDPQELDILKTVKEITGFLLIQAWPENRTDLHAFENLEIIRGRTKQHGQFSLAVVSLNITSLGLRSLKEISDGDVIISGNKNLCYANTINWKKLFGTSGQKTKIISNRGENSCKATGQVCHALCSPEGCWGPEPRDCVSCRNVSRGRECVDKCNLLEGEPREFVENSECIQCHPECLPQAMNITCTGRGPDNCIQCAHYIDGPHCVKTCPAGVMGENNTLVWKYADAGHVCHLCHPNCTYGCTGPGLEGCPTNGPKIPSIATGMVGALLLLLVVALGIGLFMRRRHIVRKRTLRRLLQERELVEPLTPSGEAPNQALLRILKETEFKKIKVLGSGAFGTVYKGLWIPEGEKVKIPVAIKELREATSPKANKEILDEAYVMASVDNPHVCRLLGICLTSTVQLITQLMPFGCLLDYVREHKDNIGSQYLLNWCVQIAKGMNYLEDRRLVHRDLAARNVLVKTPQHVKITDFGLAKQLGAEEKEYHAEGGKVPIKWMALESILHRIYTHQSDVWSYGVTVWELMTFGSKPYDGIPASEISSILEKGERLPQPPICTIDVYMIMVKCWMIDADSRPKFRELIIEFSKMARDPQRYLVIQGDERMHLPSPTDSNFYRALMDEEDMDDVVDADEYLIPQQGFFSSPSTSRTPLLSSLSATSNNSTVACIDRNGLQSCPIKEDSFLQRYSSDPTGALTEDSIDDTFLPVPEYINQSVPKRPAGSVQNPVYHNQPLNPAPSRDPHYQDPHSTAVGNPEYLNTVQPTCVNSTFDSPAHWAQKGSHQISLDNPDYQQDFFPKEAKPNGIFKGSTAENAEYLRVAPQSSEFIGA
Chain of hADRβ1 (P08588 whole entry): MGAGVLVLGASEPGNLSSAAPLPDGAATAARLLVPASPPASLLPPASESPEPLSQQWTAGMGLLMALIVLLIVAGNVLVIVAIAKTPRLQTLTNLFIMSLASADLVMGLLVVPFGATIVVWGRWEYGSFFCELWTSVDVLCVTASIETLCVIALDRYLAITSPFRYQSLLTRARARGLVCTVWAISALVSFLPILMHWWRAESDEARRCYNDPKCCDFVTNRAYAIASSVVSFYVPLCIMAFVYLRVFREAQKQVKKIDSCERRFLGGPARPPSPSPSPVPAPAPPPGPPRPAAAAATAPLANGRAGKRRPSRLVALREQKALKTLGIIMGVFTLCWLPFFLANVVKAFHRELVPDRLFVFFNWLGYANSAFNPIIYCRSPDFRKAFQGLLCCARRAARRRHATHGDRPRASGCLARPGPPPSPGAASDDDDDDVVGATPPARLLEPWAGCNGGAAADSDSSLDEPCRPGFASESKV
Chain of hADRβ2 (P07550 whole entry): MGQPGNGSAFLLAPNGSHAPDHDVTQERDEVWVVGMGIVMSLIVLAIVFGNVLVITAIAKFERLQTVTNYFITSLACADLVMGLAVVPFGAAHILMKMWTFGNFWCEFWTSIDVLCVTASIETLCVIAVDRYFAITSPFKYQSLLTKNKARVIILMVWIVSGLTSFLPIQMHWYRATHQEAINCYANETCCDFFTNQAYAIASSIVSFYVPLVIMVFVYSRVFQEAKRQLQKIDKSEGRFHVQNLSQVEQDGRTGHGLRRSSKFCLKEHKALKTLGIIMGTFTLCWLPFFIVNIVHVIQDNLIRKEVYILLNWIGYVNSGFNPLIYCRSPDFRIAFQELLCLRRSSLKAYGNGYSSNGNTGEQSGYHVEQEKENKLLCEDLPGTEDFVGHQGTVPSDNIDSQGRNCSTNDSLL
T27 sequence (Q92731 whole entry): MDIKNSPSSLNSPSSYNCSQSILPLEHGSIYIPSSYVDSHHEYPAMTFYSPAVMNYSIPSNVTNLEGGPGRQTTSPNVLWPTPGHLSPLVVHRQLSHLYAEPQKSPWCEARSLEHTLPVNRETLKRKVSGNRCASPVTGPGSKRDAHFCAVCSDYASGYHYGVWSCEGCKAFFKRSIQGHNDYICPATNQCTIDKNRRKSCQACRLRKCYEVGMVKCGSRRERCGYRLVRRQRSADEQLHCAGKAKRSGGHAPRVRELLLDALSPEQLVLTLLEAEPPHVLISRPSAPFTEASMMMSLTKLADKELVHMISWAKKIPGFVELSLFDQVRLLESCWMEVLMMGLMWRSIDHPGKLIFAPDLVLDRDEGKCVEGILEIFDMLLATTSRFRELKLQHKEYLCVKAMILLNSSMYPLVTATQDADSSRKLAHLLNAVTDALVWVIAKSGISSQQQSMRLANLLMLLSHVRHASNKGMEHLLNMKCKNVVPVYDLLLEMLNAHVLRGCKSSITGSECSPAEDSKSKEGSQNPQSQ
T11 sequence (P54764 20-986): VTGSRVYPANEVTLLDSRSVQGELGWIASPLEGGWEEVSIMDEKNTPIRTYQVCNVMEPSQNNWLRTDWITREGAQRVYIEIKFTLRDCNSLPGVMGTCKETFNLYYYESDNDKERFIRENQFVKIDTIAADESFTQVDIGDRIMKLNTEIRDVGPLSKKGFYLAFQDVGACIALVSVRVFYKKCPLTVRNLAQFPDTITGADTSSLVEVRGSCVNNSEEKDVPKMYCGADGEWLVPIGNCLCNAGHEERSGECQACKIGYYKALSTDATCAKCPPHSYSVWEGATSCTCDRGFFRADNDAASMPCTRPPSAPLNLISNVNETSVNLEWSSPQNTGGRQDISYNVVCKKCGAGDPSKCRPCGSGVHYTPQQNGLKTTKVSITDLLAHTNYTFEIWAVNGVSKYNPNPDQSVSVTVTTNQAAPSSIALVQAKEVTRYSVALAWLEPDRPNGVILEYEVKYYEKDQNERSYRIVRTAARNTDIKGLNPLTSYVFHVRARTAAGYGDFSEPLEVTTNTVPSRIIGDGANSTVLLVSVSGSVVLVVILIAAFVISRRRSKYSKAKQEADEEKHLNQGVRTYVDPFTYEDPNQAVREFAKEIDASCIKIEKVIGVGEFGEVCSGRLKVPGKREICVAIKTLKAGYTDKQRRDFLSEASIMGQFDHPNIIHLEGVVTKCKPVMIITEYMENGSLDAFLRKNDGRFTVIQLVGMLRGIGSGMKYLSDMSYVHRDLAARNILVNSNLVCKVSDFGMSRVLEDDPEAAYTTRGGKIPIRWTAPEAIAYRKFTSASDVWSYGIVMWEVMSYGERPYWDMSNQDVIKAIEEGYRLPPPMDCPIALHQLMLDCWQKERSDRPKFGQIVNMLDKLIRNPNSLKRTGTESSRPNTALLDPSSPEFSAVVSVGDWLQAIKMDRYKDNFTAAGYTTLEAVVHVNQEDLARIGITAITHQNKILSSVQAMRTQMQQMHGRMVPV

SMILES: Cc1cn(CCN2CCN(c3ccccc3-c3cc(C#N)cc(C(=O)NCCCN4CCCC4)c3)CC2)c2ccccc12 [LLY-507, 3-cyano-5-{2-[4-[2-(3-methylindol-1-yl)ethyl]piperazin-1-yl]-phenyl}-N-[(3-pyrrolidin-1-yl)propyl]benzamide]
- IC50 (hEGFR(L861Q)): > 20 µM
- IC50 (hMET(Y1235D)): > 20 µM
- IC50 (hAURKA): > 20 µM
- IC50 (hACVR2B): > 20 µM
- IC50 (hDLK): > 20 µM
- IC50 (hEGFR(E746-A750del)): > 20 µM
- inhibition at 10 µM (hADRβ1): -6%
- IC50 (hJAK1(JH1Dom.-catalytic)): > 20 µM
- IC50 (hANKK1): > 20 µM
- inhibition at 20 µM (hCSF1R-autoinhib): < 50%
- IC50 (hICK): > 20 µM
- IC50 (hEPHA4): > 20 µM
- IC50 (hLIMK2): > 20 µM
- IC50 (hINSRR): > 20 µM
- IC50 (hYES): > 20 µM
- IC50 (hLXRα): > 10 µM
- IC50 (hCSK): > 20 µM
- IC50 (hULK1): > 20 µM
- IC50 (hMARK4): > 20 µM
- IC50 (hROS1): > 20 µM
- IC50 (hLATS1): > 20 µM
- inhibition at 10 µM (hADRβ2): -15.6%
- IC50 (hABL1-p): > 20 µM
- inhibition at 10 µM (hM3): -23.6%
- IC50 (hFLT3(K663Q)): > 20 µM
- IC50 (hYANK3): > 20 µM
- IC50 (hKIT(D816V)): > 20 µM
- IC50 (hDDR2): > 20 µM
- IC50 (hTXK): > 20 µM
- % Effect, Potentiation (h5HT2B): -7.3%
- IC50 (hERβ): > 10 µM
- IC50 (hABL1(Q252H)): > 20 µM
- IC50 (hMET): > 20 µM
- IC50 (hAXL): > 20 µM
- IC50 (hEPHB4): > 20 µM
- IC50 [1]: > 20 µM
- IC50 (hEPHA5): > 20 µM
- IC50 (hSgK110): > 20 µM
- IC50 (hTRα1): > 10 µM
